According to publication PMC10249896, “AI-Assisted chemical probe discovery for the understudied Calcium-Calmodulin Dependent Kinase, PNCK” (PLOS Computational Biology, 2023):
Values joined by “and” are separate entries in the source; they are usually repeats but may differ in a detail not shown here. Identical values can stand only once.

Biological target: T1, PNCK Nano-luciferase fusion (Homo sapiens, UniProt Q6P2M8)
T1 construct: host or cells: HEK293
Assay: NanoBRET Target Engagement Intracellular Kinase Assay, cell-based PNCK binding screen and dose response in HEK293 cells
Conditions: for inhibition at 1 µM: compound 1uM, read-out: Avg. Normalized % Inhibition, 1uM, Nanobret; for inhibition at 1 µM / inhibition at 10 µM / IC50: HEK293; for inhibition at 1 µM / inhibition at 10 µM: K10 tracer 1uM, normalized to staurosporine and DMSO; for inhibition at 10 µM: compound 10uM, read-out: Avg. Normalized % Inhibition, 10uM, Nanobret; for IC50: 8-point concentration-response; for NanoBRET binding, result in words: cell-based screen / comparison with parent hit; for cell permeability: stated on testing in NanoBRET assay
Experimental: The NanoBRET Target Engagement Intracellular Kinase Assay (Promega N2520) is a cell-based binding screen which reads loss of BRET signal as a result of target binding. A PNCK Nano-luciferase fusion vector plasmid was generated custom by Promega. The K-10 tracer was used for the assay, as determined by Promega. The plasmid was maxiprepped by Genewiz for use in all future assays. HEK293 cells were seeded in a T175 flask in DMEM with 10% FBS. The following day, cells were counted to 10,000, resuspended in assay media (Optimem with no phenol red, 1% FBS). Plasmid and transfection reagent (Fugene HD, Promega E2311) were added to the mixture and cells were seeded in a white 96-well plate. After 20–24 hours, media was changed, and the assay proceeded according to protocol. K10 tracer was added at the recommended concentration of 1uM while compounds were initially screened at both 10uM and 1uM. Cells incubated with compound at 37 degrees Celsius for a maximum of 2 hours before the plate was read using Clariostar Plus. Data was normalized to Staurosporine and DMSO controls. For compounds selected for further analysis, dose response curves were generated using the same testing protocol but at 8 different concentrations: 24uM, 12uM, 6uM, 3uM, 1.5uM, .75uM 0.375uM and 0.1875uM. UM195 was tested with concentrations from 12uM to 0.09375. Similarly, compounds from the analog by catalog analysis were tested at concentrations from 24uM to 0.1875uM.
Data analysis of ADP Kinase Glo results were carried out per the manufacturer’s instructions. Results were represented as a percent decrease in activity. Data was normalized to staurosporine (positive control) as 100% decrease and DMSO (negative control) as a 0% decrease. Data for NanoBRET was analyzed by dividing the acceptor by the donor emission and […] to obtain raw millibret units (mBU). Background was subtracted using control emission averages. Data was normalized to positive and negative controls of staurosporine and DMSO. Concentration-response curves were plotted in GraphPad Prism 8 and IC50s were extrapolated using non-linear fit with concentrations transformed to logarithmic scale. Baseline was held constant and represented the average mBU of staurosporine controls while the top was constrained to represent the average mBU of DMSO controls. Error bars on dose-response curves represent standard deviations.

T1 sequence (Q6P2M8 whole entry, the tested form may be a part): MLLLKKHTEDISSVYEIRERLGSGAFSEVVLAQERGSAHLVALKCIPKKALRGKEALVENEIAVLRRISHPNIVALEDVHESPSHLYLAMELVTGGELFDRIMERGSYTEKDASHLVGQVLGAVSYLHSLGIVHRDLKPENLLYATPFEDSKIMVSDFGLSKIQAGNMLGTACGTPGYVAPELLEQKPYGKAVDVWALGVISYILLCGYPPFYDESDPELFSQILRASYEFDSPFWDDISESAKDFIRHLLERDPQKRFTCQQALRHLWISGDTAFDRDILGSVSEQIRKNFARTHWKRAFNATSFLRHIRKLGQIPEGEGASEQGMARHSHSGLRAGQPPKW

CN(CC(=O)NC(C)(C)C)Cn1nc2c3c(cccc31)C(=O)c1ccccc1-2 [UM_224]
inhibition at 1 µM: 18% | inhibition at 10 µM: 33.3%

NC(=O)Cn1cnc2cc(-c3ccc(Cl)cc3)sc2c1=O [UM_219]
inhibition at 1 µM: 0.98% | inhibition at 10 µM: 31.1%

COc1ccccc1N(CCC(N)=O)C(=O)COc1ccc2c(c1)CCCC2=O [UM_249]
inhibition at 1 µM: 22.8% | inhibition at 10 µM: 41.8%

CCn1c(SCCCn2c(=O)[nH]c3ccccc32)n[nH]c1=O [UM_274]
IC50: 10.3 µM | inhibition at 1 µM: 34.2% | inhibition at 10 µM: 71.8%

CC1CCc2c(sc(NC(=O)c3ccc([N+](=O)[O-])s3)c2C(N)=O)C1 (stereo not shown) [UM_250]
inhibition at 1 µM: 0% | inhibition at 10 µM: 0%

Cc1nnc(SCCCn2c(=O)[nH]c3ccccc32)n1N [UM_275]
inhibition at 1 µM: 12% | inhibition at 10 µM: 52.2%

O=C1CNC(=O)N1CCCOc1ccc2c3c(c(=O)oc2c1)CCCCC3 [UM_258]
inhibition at 1 µM: 27.9% | inhibition at 10 µM: 74%

C[C@@H]1CCc2c(sc(NC(=O)c3ccc(Cl)s3)c2C(N)=O)C1 [UM_228, (6R)-2-(5-chlorothiophene-2-amido)-6-methyl-4,5,6,7-tetrahydro-1-benzothiophene-3-carboxamide]
IC50: 8.32 µM | Dose-Response Curve Data (NanoBRET signal, replicates) (Concentration 1.20E-05 M): 6.59 and 6.36 and 6.71 | Dose-Response Curve Data (NanoBRET signal, replicates) (Concentration 1.50E-06 M): 8.32 and 8.64 and 8.50 | Dose-Response Curve Data (NanoBRET signal, replicates) (Concentration 1.88E-07 M): 8.44 and 8.73 and 8.35 | Dose-Response Curve Data (NanoBRET signal, replicates) (Concentration 2.40E-05 M): 5.75 and 5.50 and 5.61 | Dose-Response Curve Data (NanoBRET signal, replicates) (Concentration 3.00E-06 M): 8.33 and 8.45 and 7.70 | Dose-Response Curve Data (NanoBRET signal, replicates) (Concentration 3.75E-07 M): 8.86 and 8.18 and 8.92 | Dose-Response Curve Data (NanoBRET signal, replicates) (Concentration 6.00E-06 M): 7.13 and 7.60 and 7.05 | Dose-Response Curve Data (NanoBRET signal, replicates) (Concentration 7.50E-07 M): 8.73 and 8.94 and 8.43 | inhibition at 1 µM: 35.2% | inhibition at 10 µM: 97.6%

Cn1cnn(CN2CCN(c3ccc(O)cc3)CC2)c1=S [UM_199]
inhibition at 1 µM: 0% | inhibition at 10 µM: 16.9%

CC1(C)CCc2c(sc(NC(=O)c3ccc(Cl)s3)c2C(N)=O)C1 [UM_260]
inhibition at 1 µM: 4.8% | inhibition at 10 µM: 31.2%

O=c1[nH]c(CSc2ccccc2)nc2ccc(Cl)cc12 [UM_279]
NanoBRET binding, result in words: did not demonstrate significantly improved binding | inhibition at 1 µM: 5.1% | inhibition at 10 µM: 23.4%

O=c1[nH]c(CSc2nc3ccccc3o2)nc2ccc(Cl)cc12 [UM_280]
IC50: 14.9 µM | NanoBRET binding, result in words: did not demonstrate significantly improved binding | inhibition at 1 µM: 33.4% | inhibition at 10 µM: 74.7%

O=c1[nH]c2ccccc2n2c(SCCCn3c(=O)[nH]c4ccccc43)nnc12 [UM_273]
inhibition at 1 µM: 29% | inhibition at 10 µM: 45.5%

O=C(CSc1ncccn1)c1ccc(O)c(O)c1 [UM_243]
cell permeability: not cell permeable

COc1ccc2[nH]c(SCc3cc(=O)n4c(C)cccc4n3)nc2c1 [UM_196]
inhibition at 1 µM: 3.82% | inhibition at 10 µM: 30.5%

Cc1cc(C)n2nc(SCc3nc(-c4ccccc4)no3)nc2n1 [UM_217]
inhibition at 1 µM: 10.5% | inhibition at 10 µM: 49.3%

O=C(O)CCc1nnc(SCc2c(Cl)cccc2Cl)[nH]c1=O [UM_193]
inhibition at 1 µM: 0% | inhibition at 10 µM: 0% | cell permeability: not cell permeable

O=c1[nH]c(-c2ccc(-n3cccn3)nc2)nc2sc3ccccc3c12 [UM_208]
inhibition at 1 µM: 5.94% | inhibition at 10 µM: 87.8%

Cc1cc(C)n2nc(SCc3cc(=O)n4cc(Br)ccc4n3)nc2n1 [UM_201]
inhibition at 1 µM: 3.26% | inhibition at 10 µM: 30.8%

N#Cc1cnc(Sc2nnc(C3CCCCC3)o2)cn1 [UM_256]
inhibition at 1 µM: 2.86% | inhibition at 10 µM: 51%

O=c1[nH]c(CSc2ccc3ccccc3n2)nc2ccc(Cl)cc12 [UM_210, 6-chloro-2-[(quinolin-2-ylsulfanyl)methyl]-3,4-dihydroquinazolin-4-one]
IC50: 8.09 µM | Dose-Response Curve Data (NanoBRET signal, replicates) (Concentration 1.20E-05 M): 7.35 and 5.53 and 7.51 and 6.90 | Dose-Response Curve Data (NanoBRET signal, replicates) (Concentration 1.50E-06 M): 8.14 and 8.22 and 8.79 and 8.09 | Dose-Response Curve Data (NanoBRET signal, replicates) (Concentration 1.88E-07 M): 8.61 and 9.43 and 9.50 and 8.74 | Dose-Response Curve Data (NanoBRET signal, replicates) (Concentration 2.40E-05 M): 4.79 and 5.28 and 5.02 and 4.59 | Dose-Response Curve Data (NanoBRET signal, replicates) (Concentration 3.00E-06 M): 7.91 and 7.57 and 6.47 and 7.46 | Dose-Response Curve Data (NanoBRET signal, replicates) (Concentration 3.75E-07 M): 9.79 and 9.21 and 8.99 and 8.71 | Dose-Response Curve Data (NanoBRET signal, replicates) (Concentration 6.00E-06 M): 7.06 and 7.86 and 6.98 and 6.97 | Dose-Response Curve Data (NanoBRET signal, replicates) (Concentration 7.50E-07 M): 8.34 and 8.97 and 8.05 and 9.09 | inhibition at 1 µM: 41.2% | inhibition at 10 µM: 98.5%

Cc1ccc2[nH]c(SCc3cc(=O)n4ccccc4n3)nc2c1 [UM_197]
inhibition at 1 µM: 1.23% | inhibition at 10 µM: 27%

c1ccc2c(c1)ccn2CCc1nc(-c2cnccn2)no1 [UM_202]
inhibition at 1 µM: 0% | inhibition at 10 µM: 21.5%

O=C1CCCCCN1CCc1nc(-c2cccnn2)no1 [UM_242]
cell permeability: not cell permeable

O=C(O)c1ccc(-c2nc(O)c3c4c(sc3n2)CCCC4)cc1 [UM_233]
inhibition at 1 µM: 7.37% | inhibition at 10 µM: 14.2%

c1ccc2c(-c3nnc(Sc4cnccn4)o3)cccc2c1 [UM_265]
inhibition at 1 µM: 21.5% | inhibition at 10 µM: 63.5%

Cc1nc2c3ccccc3nc(SCCCn3c(=O)[nH]c4ccccc43)n2n1 [UM_277]
IC50: 16.1 µM | inhibition at 1 µM: 37.1% | inhibition at 10 µM: 68.6%

N#Cc1cnc(Sc2nnc(-c3cccc4ccccc34)o2)cn1 [UM_195, 5-[5-(naphthalen-1-yl)-1,3,4-oxadiazol-2-yl]sulfanylpyrazine-2-carbonitrile]
IC50: 3.36 µM | Dose-Response Curve Data (NanoBRET signal, replicates) (Concentration 1.20E-05 M): 5.32 and 5.59 and 5.20 | Dose-Response Curve Data (NanoBRET signal, replicates) (Concentration 1.50E-06 M): 7.80 and 7.94 and 7.90 | Dose-Response Curve Data (NanoBRET signal, replicates) (Concentration 1.88E-07 M): 9.08 and 9.29 and 8.92 | Dose-Response Curve Data (NanoBRET signal, replicates) (Concentration 3.00E-06 M): 7.45 and 6.56 and 7.25 | Dose-Response Curve Data (NanoBRET signal, replicates) (Concentration 3.75E-07 M): 9.32 and 8.97 and 9.18 | Dose-Response Curve Data (NanoBRET signal, replicates) (Concentration 6.00E-06 M): 5.79 and 6.12 (2×) | Dose-Response Curve Data (NanoBRET signal, replicates) (Concentration 7.50E-07 M): 8.84 and 8.55 and 8.27 | Dose-Response Curve Data (NanoBRET signal, replicates) (Concentration 9.38E-08 M): 9.33 and 9.39 and 8.87 | inhibition at 1 µM: 22.1% | inhibition at 10 µM: 100%

Clc1nc(-c2cccnc2)nc2sc3c(c12)CCCC3 [UM_209]
inhibition at 1 µM: 5.53% | inhibition at 10 µM: 55.3%

Clc1nc(CN2CCCCC2)nc2sc3c(c12)CCC3 [UM_220]
inhibition at 1 µM: 1.68% | inhibition at 10 µM: 27.1%

CCOCCn1c(CN2CCN(CC)CC2)nc2c1c(O)nc(=O)n2C [UM_227]
inhibition at 1 µM: 22.4% | inhibition at 10 µM: 49.4%

CNC(=O)[C@@H]1C[C@@H](N)CN1C(=O)CCc1nc(-c2cccnc2)no1 [UM_244]
cell permeability: not cell permeable

CC1CCc2c(sc(NC(=O)CSc3ncnc4[nH]cnc34)c2C(N)=O)C1 (stereo not shown) [UM_251]
IC50: 2.53 µM | Dose-Response Curve Data (NanoBRET signal, replicates) (Concentration 1.20E-05 M): 4.13 and 4.23 and 4.54 and 4.39 | Dose-Response Curve Data (NanoBRET signal, replicates) (Concentration 1.50E-06 M): 6.59 and 7.07 and 6.74 and 7.03 | Dose-Response Curve Data (NanoBRET signal, replicates) (Concentration 1.88E-07 M): 7.33 and 7.01 and 6.90 and 7.62 | Dose-Response Curve Data (NanoBRET signal, replicates) (Concentration 2.40E-05 M): 4.23 and 3.92 and 4.54 and 4.39 | Dose-Response Curve Data (NanoBRET signal, replicates) (Concentration 3.00E-06 M): 6.43 and 6.10 and 6.50 and 6.24 | Dose-Response Curve Data (NanoBRET signal, replicates) (Concentration 3.75E-07 M): 7.22 and 7.21 and 7.00 and 7.10 | Dose-Response Curve Data (NanoBRET signal, replicates) (Concentration 6.00E-06 M): 4.64 and 5.22 and 4.89 and 5.32 | Dose-Response Curve Data (NanoBRET signal, replicates) (Concentration 7.50E-07 M): 7.22 and 6.99 and 7.34 and 6.94 | NanoBRET binding, result in words: improving from the IC50 of UM_228 by one order of magnitude | inhibition at 1 µM: 63.2% | inhibition at 10 µM: 91.8%

Cc1cc(NC(=O)[C@@H]2CCO[C@H]2c2nccn2C)nnc1C [UM_221]
inhibition at 1 µM: 0% | inhibition at 10 µM: 14.7%

COc1cccc(-c2nc3c(c(=O)[nH]2)Cc2cc(Br)ccc2O3)c1O [UM_229]
inhibition at 1 µM: 27.5% | inhibition at 10 µM: 54%

Cc1nc2c(c(=O)[nH]1)CCN(Cc1cc3ccccc3n(C)c1=O)CC2 [UM_231]
inhibition at 1 µM: 25.9% | inhibition at 10 µM: 46.3%

CCc1nc(N)nc(SCCCn2c(=O)[nH]c3ccccc32)n1 [UM_276]
inhibition at 1 µM: 10.9% | inhibition at 10 µM: 37.8%

NC(=O)Nc1cccc(C(=O)Nc2cc3c(cc2Br)OCCO3)c1 [UM_222]
inhibition at 1 µM: 28% | inhibition at 10 µM: 71.1%

Cc1nc(N2CCC[C@H]3C(=O)NC[C@H]32)c2c(C)c(C)sc2n1 [UM_194]
inhibition at 1 µM: 1.43% | inhibition at 10 µM: 27.6%
